According to US20250213533A1 (GH RESEARCH IRELAND LIMITED, priority 2022, published 2025):

Experiments:
5-HT1A receptors = target: T1, 5-HT1A receptors (Homo sapiens, UniProt P08908); assay: Radioligand binding ([3H]8-OH-DPAT) to 5-HT1A receptors in post-mortem human hippocampus membranes
T1 construct: 5-HT1A and 5-HT2A receptors in post-mortem human brain tissue from the hippocampus and frontal cortex, respectively; tissue Edinburgh Sudden Death Brain Bank; host or cells: post-mortem human hippocampus membranes
T1 sequence (P08908 1-422): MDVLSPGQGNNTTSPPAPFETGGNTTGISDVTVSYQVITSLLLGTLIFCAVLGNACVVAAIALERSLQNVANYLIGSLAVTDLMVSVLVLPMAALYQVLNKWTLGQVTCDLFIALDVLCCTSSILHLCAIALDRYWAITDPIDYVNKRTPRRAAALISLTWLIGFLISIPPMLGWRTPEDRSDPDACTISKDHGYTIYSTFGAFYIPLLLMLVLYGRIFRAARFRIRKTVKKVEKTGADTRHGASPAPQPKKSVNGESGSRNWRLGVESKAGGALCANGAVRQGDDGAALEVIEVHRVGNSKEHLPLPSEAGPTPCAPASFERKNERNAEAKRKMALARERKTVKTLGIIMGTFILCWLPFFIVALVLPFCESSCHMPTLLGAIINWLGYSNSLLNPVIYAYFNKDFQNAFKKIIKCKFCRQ

5-HT2A receptors = target: T2, 5-HT2A receptors (Homo sapiens, UniProt P28223); assay: Radioligand binding ([3H]MDL-100,907) to 5-HT2A receptors in post-mortem human frontal cortex membranes
T2 construct: 5-HT1A and 5-HT2A receptors in post-mortem human brain tissue from the hippocampus and frontal cortex, respectively; tissue Edinburgh Sudden Death Brain Bank; host or cells: post-mortem human frontal cortex membranes
T2 sequence (P28223 whole entry): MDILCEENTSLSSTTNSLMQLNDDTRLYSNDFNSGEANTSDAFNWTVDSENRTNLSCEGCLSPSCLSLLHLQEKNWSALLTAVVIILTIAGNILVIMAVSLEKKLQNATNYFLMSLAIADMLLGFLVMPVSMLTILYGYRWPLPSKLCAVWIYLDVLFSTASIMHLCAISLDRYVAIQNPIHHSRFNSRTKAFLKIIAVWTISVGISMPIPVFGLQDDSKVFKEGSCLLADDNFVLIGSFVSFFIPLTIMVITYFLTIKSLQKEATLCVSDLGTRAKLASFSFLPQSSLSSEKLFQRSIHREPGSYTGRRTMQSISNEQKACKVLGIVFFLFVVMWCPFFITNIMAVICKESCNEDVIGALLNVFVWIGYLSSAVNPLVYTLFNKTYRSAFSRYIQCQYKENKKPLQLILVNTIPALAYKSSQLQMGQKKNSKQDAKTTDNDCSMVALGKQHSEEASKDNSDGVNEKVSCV

[1] = Pharmacokinetics of 5-MeO-DMT and bufotenine after inhalation of 5-MeO-DMT in subjects; assay type: in vivo, human

Row | Structure (SMILES) | affinity for 5-HT1A receptors (in words) (5-HT1A receptors) | affinity for 5-HT2A receptors (in words) (5-HT2A receptors) | bufotenine blood concentration above LLOQ (25 pg/ml) ([1]; metabolite after inhaled 5-MeO-DMT) | bufotenine observations when uptitration subjects were included ([1]; uptitration scheme)
1 | CN(C)CCc1c[nH]c2ccccc12 [DMT, N,N-dimethyltryptamine] | moderate affinity | comparatively weak affinity |  | 
2 | CN(C)CCc1c[nH]c2ccc(O)cc12 [bufotenine] |  |  | Only in few samples | Substantially similar observations
3 | CN(C)CCc1c[nH]c2cccc(O)c12 [psilocin] | moderate affinity | moderate/strong affinity |  | 
